Experimental data taken from US11780839B2, “Compounds for treating Huntington's disease” (PTC THERAPEUTICS, INC., priority 2018, dated 2023).

System: Endogenous Huntingtin Protein
Assay: Endogenous Huntingtin Protein Assay (ELISA-based Meso Scale Discovery electrochemiluminescence)
Assay type: cell-based
Settings: MSD electrochemiluminescence, Table 1
Method in brief: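 Sandwich MSD electrochemiluminescence immunoassay. Capture used MW1 (expanded polyglutamine) or MAB2166 antibody coated at 1 μg/mL overnight at 4 °C. Samples were bound overnight at 4 °C, then a rabbit monoclonal detection antibody and SULFO-TAG anti-rabbit, each at 0.25 μg/mL, were applied for 1 h at room temperature.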

SMILES	IC50
NC1C2CN(c3ncc(-c4ccc(-c5cn[nH]c5)cc4O)nn3)CC12 (stereo not drawn) [Cpd 100, 2-[3-(6-amino-3-azabicyclo[3.1.0]hexan-3-yl)-1,2,4-triazin-6-yl]-5-(1H-pyrazol-4-yl)phenol]	≤ 100 nM
CN(c1ncc(-c2ccc(-c3cnn(C4CC4)c3)cc2O)nn1)C1CC(C)(C)NC(C)(C)C1 [Cpd 101, 5-(1-cyclopropyl-1H-pyrazol-4-yl)-2-{3-[methyl(2,2,6,6-tetramethylpiperidin-4-yl)amino]-1,2,4-triazin-6-yl}phenol]	100 to 500 nM
CN(c1ncc(-c2ccc(-c3ccncn3)cc2O)nn1)C1CC(C)(C)NC(C)(C)C1 [Cpd 102, 2-{3-[methyl(2,2,6,6-tetramethylpiperidin-4-yl)amino]-1,2,4-triazin-6-yl}-5-(pyrimidin-4-yl)phenol]	≤ 100 nM
CN(c1ncc(-c2ccc(-c3ccc(O)cc3)cc2O)nn1)C1CC(C)(C)NC(C)(C)C1 [Cpd 103, 4-{3-[methyl(2,2,6,6-tetramethylpiperidin-4-yl)amino]-1,2,4-triazin-6-yl}[1,1'-biphenyl]-3,4’-diol]	≤ 100 nM
CN(c1ncc(-c2ccc(-c3ccc(=O)[nH]c3)cc2O)nn1)C1CC(C)(C)NC(C)(C)C1 [Cpd 104, 5-(3-hydroxy-4-{3-[methyl(2,2,6,6-tetramethylpiperidin-4-yl)amino]-1,2,4-triazin-6-yl}phenyl)pyridin-2(1H)-one]	≤ 100 nM
CN(c1ncc(-c2cc3cccnc3cc2O)nn1)C1CC(C)(C)NC(C)(C)C1 [Cpd 105, 6-{3-[methyl(2,2,6,6-tetramethylpiperidin-4-yl)amino]-1,2,4-triazin-6-yl}quinolin-7-ol]	100 to 500 nM
CN(c1ncc(-c2ccc(-c3nnco3)cc2O)nn1)C1CC(C)(C)NC(C)(C)C1 [Cpd 106, 2-{3-[methyl(2,2,6,6-tetramethylpiperidin-4-yl)amino]-1,2,4-triazin-6-yl}-5-(1,3,4-oxadiazol-2-yl)phenol]	≤ 100 nM
CC1(C)CC(Oc2ncc(-c3ccc(-c4cc[nH]n4)cc3O)nn2)CC(C)(C)N1 [Cpd 107, 5-(1H-pyrazol-3-yl)-2-{3-[(2,2,6,6-tetramethylpiperidin-4-yl)oxy]-1,2,4-triazin-6-yl}phenol]	1000 to 3000 nM
Cn1ccc(-c2ccc(-c3cnc(OC4CC(C)(C)NC(C)(C)C4)nn3)c(O)c2)n1 [Cpd 108, 5-(1-methyl-1H-pyrazol-3-yl)-2-{3-[(2,2,6,6-tetramethylpiperidin-4-yl)oxy]-1,2,4-triazin-6-yl}phenol]	> 500 nM
Oc1cc(-c2cn[nH]c2)ccc1-c1cnc(N2CC3(CCCNC3)C2)nn1 [Cpd 109, 2-[3-(2,6-diazaspiro[3.5]nonan-2-yl)-1,2,4-triazin-6-yl]-5-(1H-pyrazol-4-yl)phenol]	100 to 500 nM
Oc1cc(-c2cn[nH]c2)ccc1-c1cnc(N2CCC3(CNC3)C2)nn1 [Cpd 110, 2-[3-(2,6-diazaspiro[3.4]octan-6-yl)-1,2,4-triazin-6-yl]-5-(1H-pyrazol-4-yl)phenol]	100 to 500 nM
CN(c1ncc(-c2ccc(-c3cc[nH]n3)cc2O)nn1)C1CC(C)(C)NC(C)(C)C1 [Cpd 111, 2-{3-[methyl(2,2,6,6-tetramethylpiperidin-4-yl)amino]-1,2,4-triazin-6-yl}-5-(1H-pyrazol-3-yl)phenol]	≤ 100 nM
CN(c1ncc(-c2ccc(-c3ncc(F)cn3)cc2O)nn1)C1CC(C)(C)NC(C)(C)C1 [Cpd 112, 5-(5-fluoropyrimidin-2-yl)-2-{3-[methyl(2,2,6,6-tetramethylpiperidin-4-yl)amino]-1,2,4-triazin-6-yl}phenol]	100 to 500 nM
CN1CCC12CCN(c1ncc(-c3ccc(-c4cn[nH]c4)cc3O)nn1)CC2 [Cpd 113, 2-[3-(1-methyl-1,7-diazaspiro[3.5]nonan-7-yl)-1,2,4-triazin-6-yl]-5-(1H-pyrazol-4-yl)phenol]	100 to 500 nM
CN[C@H]1CCN(c2ncc(-c3ccc(-c4cn[nH]c4)cc3O)nn2)C1 [Cpd 114, 2-{3-[(3S)-3-(methylamino)pyrrolidin-l-yl]-1,2,4-triazin-6-yl}-5-(1H-pyrazol-4-yl)phenol]	≤ 100 nM
N[C@@H]1CN(c2ncc(-c3ccc(-c4cn[nH]c4)cc3O)nn2)CC12CC2 [Cpd 115, 2-{3-[(7S)-7-amino-5-azaspiro[2.4]heptan-5-yl]-1,2,4-triazin-6-yl}-5-(1H-pyrazol-4-yl)phenol]	100 to 500 nM
Oc1cc(-c2cn[nH]c2)ccc1-c1cnc(N2CCN3CCC[C@H]3C2)nn1 [Cpd 116, 2-{3-[(8aS)-hexahydropyrrolo[1,2-a]pyrazin-2(1H)-yl]-1,2,4-triazin-6-yl}-5-(1H-pyrazol-4-yl)phenol]	100 to 500 nM
CN1CC[C@@H]2CN(c3ncc(-c4ccc(-c5cn[nH]c5)cc4O)nn3)C[C@@H]21 [Cpd 117, 2-{3-[(3aR,6aR)-1-methylhexahydropyrrolo[3,4-b]pyrrol-5(1H)-yl]-1,2,4-triazin-6-yl}-5-(1H-pyrazol-4-yl)phenol]	100 to 500 nM

SMILES	IC50
Oc1cc(-c2cn[nH]c2)ccc1-c1cnc(N2CC3(CNC3)C2)nn1 [Cpd 118, 2-[3-(2,6-diazaspiro[3.3]heptan-2-yl)-1,2,4-triazin-6-yl]-5-(1H-pyrazol-4-yl)phenol]	100 to 500 nM
Cc1nnn(-c2ccc(-c3cnc(N(C)C4CC(C)(C)NC(C)(C)C4)nn3)c(O)c2)n1 [Cpd 119, 2-{3-[methyl(2,2,6,6-tetramethylpiperidin-4-yl)amino]-1,2,4-triazin-6-yl}-5-(5-methyl-2H-tetrazol-2-yl)phenol]	≤ 100 nM
CCC1CC(Oc2ncc(-c3ccc(-c4cn[nH]c4)cc3O)nn2)CC(CC)N1 [Cpd 120, 2-{3-[(2R,4s,6S)-2,6-diethylpiperidin-4-yl]oxy}-1,2,4-triazin-6-yl)-5-(1H-pyrazol-4-yl)phenol]	100 to 500 nM
CC1(C)CC(Nc2ncc(-c3ccc(-n4nccn4)cc3O)nn2)CC(C)(C)N1 [Cpd 121, 2-{3-[(2,2,6,6-tetramethylpiperidin-4-yl)amino]-1,2,4-triazin-6-yl}-5-(2H-1,2,3-triazol-2-yl)phenol]	≤ 100 nM
CC1(C)CC(Oc2ncc(-c3ccc(-n4nccn4)cc3O)nn2)CC(C)(C)N1 [Cpd 122, 2-{3-[(2,2,6,6-tetramethylpiperidin-4-yl)oxy]-1,2,4-triazin-6-yl}-5-(2H-1,2,3-triazol-2-yl)phenol]	100 to 500 nM
CN(c1ncc(-c2ccc(-c3ccc(Cl)nn3)cc2O)nn1)C1CC(C)(C)NC(C)(C)C1 [Cpd 123, 5-(6-chloropyridazin-3-yl)-2-{3-[methyl(2,2,6,6-tetramethylpiperidin-4-yl)amino]-1,2,4-triazin-6-yl}phenol]	≤ 100 nM
CN(c1ncc(-c2ccc(-c3ccnn3C)cc2O)nn1)C1CC(C)(C)NC(C)(C)C1 [Cpd 124, 5-(1-methyl-1H-pyrazol-5-yl)-2-{3-[methyl(2,2,6,6-tetramethylpiperidin-4-yl)amino]-1,2,4-triazin-6-yl}phenol]	100 to 500 nM
CN(c1ncc(-c2cc(F)c(-c3ccn[nH]3)cc2O)nn1)C1CC(C)(C)NC(C)(C)C1 [Cpd 125, 4-fluoro-2-{3-[methyl(2,2,6,6-tetramethylpiperidin-4-yl)amino]-1,2,4-triazin-6-yl}-5-(1H-pyrazol-5-yl)phenol]	≤ 100 nM
CC1(C)CC(Nc2ncc(-c3ccc(-c4cn[nH]c4)cc3O)nn2)C(F)C(C)(C)N1 (stereo not drawn) [Cpd 126, 2-{3-[(3-fluoro-2,2,6,6-tetramethylpiperidin-4-yl)amino]-1,2,4-triazin-6-yl}-5-(1H-pyrazol-4-yl)phenol]	≤ 100 nM
CCN(CC)C1C2CN(c3ncc(-c4ccc(-c5cn[nH]c5)cc4O)nn3)CC21 (stereo not drawn) [Cpd 127, 2-{3-[6-(diethylamino)-3-azabicyclo[3.1.0]hexan-3-yl]-1,2,4-triazin-6-yl}-5-(1H-pyrazol-4-yl)phenol]	100 to 500 nM
Cc1cnc(-c2ccc(-c3cnc(N(C)C4CC(C)(C)NC(C)(C)C4)nn3)c(O)c2)nc1 [Cpd 128, 5-(5-methylpyrimidin-2-yl)-2-{3-[methyl(2,2,6,6-tetramethylpiperidin-4-yl)amino]-1,2,4-triazin-6-yl}phenol]	100 to 500 nM
Cc1ccnc(-c2ccc(-c3cnc(N(C)C4CC(C)(C)NC(C)(C)C4)nn3)c(O)c2)n1 [Cpd 129, 5-(4-methylpyrimidin-2-yl)-2-{3-[methyl(2,2,6,6-tetramethylpiperidin-4-yl)amino]-1,2,4-triazin-6-yl}phenol]	100 to 500 nM
CN(c1ncc(-c2ccc(-c3ccnc(Cl)n3)cc2O)nn1)C1CC(C)(C)NC(C)(C)C1 [Cpd 130, 5-(2-chloropyrimidin-4-yl)-2-{3-[methyl(2,2,6,6-tetramethylpiperidin-4-yl)amino]-1,2,4-triazin-6-yl}phenol]	100 to 500 nM
CN(c1ncc(-c2ccc(-c3ccc4[nH]cnc4c3)cc2O)nn1)C1CC(C)(C)NC(C)(C)C1 [Cpd 131, 5-(1H-benzimidazol-5-yl)-2-{3-[methyl(2,2,6,6-tetramethylpiperidin-4-yl)amino]-1,2,4-triazin-6-yl}phenol]	≤ 100 nM
CN(c1ncc(-c2ccc(-c3cnc4[nH]ncc4c3)cc2O)nn1)C1CC(C)(C)NC(C)(C)C1 [Cpd 132, 2-{3-[methyl(2,2,6,6-tetramethylpiperidin-4-yl)amino]-1,2,4-triazin-6-yl}-5-(1H-pyrazolo[3,4-b]pyridin-5-yl)phenol]	100 to 500 nM
CN(c1ncc(-c2ccc(-n3cnc(Cl)n3)cc2O)nn1)C1CC(C)(C)NC(C)(C)C1 [Cpd 133, 5-(3-chloro-1H-1,2,4-triazol-1-yl)-2-{3-[methyl(2,2,6,6-tetramethylpiperidin-4-yl)amino]-1,2,4-triazin-6-yl}phenol]	≤ 100 nM
CN(c1ncc(-c2ccc(-c3ccc(O)nn3)cc2O)nn1)C1CC(C)(C)NC(C)(C)C1 [Cpd 134, 6-(3-hydroxy-4-{3-[methyl(2,2,6,6-tetramethylpiperidin-4-yl)amino]-1,2,4-triazin-6-yl}phenyl)pyridazin-3-ol]	≤ 100 nM
CN(c1ncc(-c2ccc(-n3cc(C#N)cn3)cc2O)nn1)C1CC(C)(C)NC(C)(C)C1 [Cpd 135, 1-(3-hydroxy-4-{3-[methyl(2,2,6,6-tetramethylpiperidin-4-yl)amino]-1,2,4-triazin-6-yl}phenyl)-1H-pyrazole-4-carbonitrile]	100 to 500 nM
